Assay: Antiplatelet activity as log (APA) by using artificial neural network (ANN) method
Assay type: functional

In order of falling “Observed log APA” value:
1. COc1cc(NC(C)=O)c([N+](=O)[O-])cc1-c1nc(C)c(-c2cccnc2)[nH]1  1.5
2. COc1c(-c2nc(C)c(-c3cccnc3)[nH]2)cc2nc(C)[nH]c2c1Cl  1.4
3. Cc1[nH]c(-c2ccccc2F)nc1-c1cccnc1  1.4
4. COC(=O)Nc1ccccc1-c1nc(C)c(-c2cccnc2)[nH]1  1.4
5. COc1cc(NC(C)=O)c(Cl)cc1-c1nc(C)c(-c2cccnc2)[nH]1  1.4
6. COc1c(-c2nc(C)c(-c3cccnc3)[nH]2)cc(Cl)c2[nH]c(C)nc12  1.3
7. COc1ccccc1-c1nc(C)c(-c2cccnc2)[nH]1  1.1
8. CNC(=O)Nc1ccccc1-c1nc(C)c(-c2cccnc2)[nH]1  1.1
9. CCOc1ccccc1-c1nc(C)c(-c2cccnc2)[nH]1  1.1
10. CSc1ccccc1-c1nc(C)c(-c2cccnc2)[nH]1  0.95
11. COc1cc(OC)c(-c2nc(C)c(-c3cccnc3)[nH]2)cc1NC(C)=O  0.93
12. COc1cc2[nH]c(C)nc2cc1-c1nc(C)c(-c2cccnc2)[nH]1  0.83
13. Cc1[nH]c(-c2ccccc2N)nc1-c1cccnc1  0.8
14. COc1c(-c2nc(C)c(-c3cccnc3)[nH]2)cc2nc(O)[nH]c2c1Cl  0.79
15. Cc1nc2cc(-c3nc(C)c(-c4cccnc4)[nH]3)c(C)cc2[nH]1  0.74
16. COc1c(-c2nc(C)c(-c3cccnc3)[nH]2)ccc2[nH]c(C)nc12  0.72
17. Cc1nc2cc(Cl)c(-c3nc(C)c(-c4cccnc4)[nH]3)cc2[nH]1  0.68
18. CCOC(=O)COc1ccccc1-c1nc(C)c(-c2cccnc2)[nH]1  0.6
19. COc1cc2c(cc1-c1nc(C)c(-c3cccnc3)[nH]1)nc(O)n2C  0.57
20. COc1c(-c2nc(C)c(-c3cccnc3)[nH]2)cc(Cl)c2[nH]c(CCC(=O)O)nc12  0.4
21. Cc1[nH]c(-c2ccccc2Cl)nc1-c1cccnc1  0.38
22. Cc1ccccc1-c1nc(C)c(-c2cccnc2)[nH]1  0.18
